Results reported in ChEMBL document CHEMBL2169860, “Design of a hypoxia-activated prodrug inhibitor of O6-alkylguanine-DNA alkyltransferase” (Bioorg Med Chem Lett, 2012).
pIC50: −log10 of the molar value. The source made the active and inactive calls. No cut-off for these calls is given here.

Columns and labels:
[1] = tested on: EMT6; assay: Potentiation of laromustine-induced cytotoxicity against mouse EMT6 cells expressing human AGT assessed as cell survival fraction at 2 uM treated 2 hrs before laromustine addition measured after 18 hrs by clonogenic assay; assay type: functional, cell-based
[2] = tested on: EMT6; assay: Cytotoxicity against mouse EMT6 cells expressing human AGT assessed as cell survival fraction at 2 uM after 18 hrs by clonogenic assay; assay type: cell-based; conditions: emt6, 18 h
[3] = tested on: EMT6; assay: Prodrug activation in mouse EMT6 cells assessed as 6-((3-((dimethylamino)methyl)benzyl)oxy)-9H-purin-2-amine level under oxic condition at 200 uM after 1 hr by HPLC analysis; assay type: cell-based; conditions: emt6, 1 h
[4] = tested on: EMT6; assay: Prodrug activation in mouse EMT6 cells assessed as 6-((3-((dimethylamino)methyl)benzyl)oxy)-9H-purin-2-amine level under hypoxic condition at 200 uM after 1 hr by HPLC analysis; assay type: cell-based; conditions: emt6, 1 h
[5] = biological target: T1, Methylated-DNA--protein-cysteine methyltransferase (Homo sapiens, UniProt P16455)
T1 sequence (P16455 whole entry): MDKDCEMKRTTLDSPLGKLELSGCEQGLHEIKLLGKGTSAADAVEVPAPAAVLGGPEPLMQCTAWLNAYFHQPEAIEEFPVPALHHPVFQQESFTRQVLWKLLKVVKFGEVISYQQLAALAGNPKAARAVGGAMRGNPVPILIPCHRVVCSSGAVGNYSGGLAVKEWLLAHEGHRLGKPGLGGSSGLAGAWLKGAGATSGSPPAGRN
Description: Inhibition of AGT in human HL60 cells assessed as AGT levels using [3H]AGT after 2 hrs

[6] = tested on: EMT6; assay: Stability of the compound in mouse EMT6 cells assessed as parent compound level under oxic condition at 200 uM after 1 hr by HPLC analysis; assay type: ADME, cell-based; conditions: emt6, 1 h
[7] = tested on: EMT6; assay: Stability of the compound in mouse EMT6 cells assessed as parent compound level under hypoxic condition at 200 uM after 1 hr by HPLC analysis; assay type: ADME, cell-based; conditions: emt6, 1 h

How did the Activity [1] turn out when `NCc1cccc(COc2nc(N)nc3nc[nH]c23)c1` was run?
Its Activity is “Active”.

And the Activity [2]?
The Activity was “Non-toxic”.

How did the Activity [2] turn out when `Nc1nc(OCc2ccccc2)c2[nH]cnc2n1` [6-O-BENZYLGUANINE] was run?
The Activity was “Non-toxic”.

Which Activity [1] does the source give for `Nc1nc(OCc2ccccc2)c2nc[nH]c2n1` here?
The Activity was “Active”.

How did the Drug metabolism [3] turn out when `CN(C)Cc1cccc(COc2nc(NC(=O)OC(C)(C)c3ccc([N+](=O)[O-])cc3)nc3[nH]cnc23)c1` was run?
Its Drug metabolism is 195.5 µM.

What about the Drug metabolism [4] of the same molecule?
Its Drug metabolism is 149.6 µM.

What does the source list for `CC(=O)NCc1cccc(COc2nc(N)nc3[nH]cnc23)c1`?
pIC50 [5]: 7.07; Activity [1]: Active; Activity [2]: Non-toxic

With `CN(C)Cc1cccc(COc2nc(N)nc3[nH]cnc23)c1` as the molecule, how does the Stability [6] read?
The Stability was 0.2 µM.

What about the pIC50 [5] of the same molecule?
Its pIC50 is 7.60.

And the Stability [7]?
Its Stability is 12.3 µM.

And the Activity [1]?
The Activity was “Active”.

And the Activity [2]?
Its Activity is “Non-toxic”.
